Data set [1] has as its system SARS-CoV-2 isolate USA-WA1/2020. The conditions noted are these: for inhibition: read-out: cytopathic effect, % cell viability, duplicate wells. On the technique in general: Damage to the host cells serves as the signal in cytopathic effect assays.
Data set [2] is described as follows: in vitro. The following applies: African green monkey, cytotoxicity, %cell viability.
Data set [3] deals with T1, PLpro from SARS-CoV-2 (Severe acute respiratory syndrome coronavirus 2, UniProt P0DTD1). The data set is described as follows: biochemical. Type of data set: biochemical. The following applies: for remaining activity at 100 µM: inhibitor 100.00 uM; for remaining activity at […]: read-out: % Plpro activity; for IC50: after 30-min incubation, purified PLpro, Z-RLRGG-AMC substrate.

Data set [4] concerns Vero E6 cells. The following applies: African green monkey, 48 h.
In data set [5] the test system is SARS-CoV-2 isolate USA-WA1/2020. The data set is described as follows: microbe, parasite or virus in culture. The following applies: for inhibition at 2.08 µM: Severe acute respiratory syndrome coronavirus 2, Vero C1008, read-out: cytopathic effect, % cell viability, [inhibitor] 2.08 uM; for inhibition at […]: Severe acute respiratory syndrome coronavirus 2, Vero C1008, read-out: cytopathic effect, % cell viability.

Data set [6] deals with T1, PLpro from SARS-CoV-2. Put plainly: biochemical. The class given is biochemical. The conditions noted are these: fluorogenic peptide assay, varied preincubation time.

The text below walks through data of paper PMC10044120, “Potent and selective covalent inhibition of the papain-like protease from SARS-CoV-2” (Nature Communications, 2023).

SMILES strings stand for the structures. Values joined by “and” are separate entries in the source; they are usually repeats but may differ in a detail not shown here. Equal entries are not always repeated. Where two headings read alike, the source gives them in different places.

By viability is commonly meant a read-out of living cells in per cent, often relative to untreated cells. On to `COC(=O)CCc1ccccc1C(=O)N[C@H](C)c1cccc2ccccc12` [Compound 3, methyl (R)−3-(2-((1-(naphthalen-1-yl)ethyl)carbamoyl)phenyl)propanoate], for which the inhibition in data set [1] ([inhibitor] 2.08 uM, 2.08 µM) turned out to be 8.63%. In addition, in data set [2], the viability at 48 h, 2.08 µM stood at 105%; the viability at 48 h, 8.33 µM is 93.2%; the viability at 48 h, 16.65 µM was 92%. For the same compound, in data set [3] (0.5 h), the remaining activity at 100 µM came to 78.6%; the remaining activity at […] was 119% and 108%. Besides, the “cytotoxicity, %cell viability” value in data set [4] (2.08 µM) was determined as 99.61%. Also, in data set [4] (8.33 µM), the “cytotoxicity, %cell viability” value was 97.36%. Also, the “cytotoxicity, %cell viability” value in data set [4] (16.65 µM) is listed as 90.64%. In addition, the inhibition at 2.08 µM in data set [5] (duplicate wells) was determined as 7.81%.
As a reminder, the IC50 is the midpoint of a concentration-inhibition curve. A low value points to greater potency. Turning to `C[C@@H](NC(=O)c1ccccc1CCC(=O)NN)c1cccc2ccccc12` [Compound 5, (R)-2-(3-hydrazineyl-3-oxopropyl)-N-(1-(naphthalen-1-yl)ethyl)benzamide], the “Time dep. (time-dependent inhibition)” value in data set [6] is recorded as “No”. In addition, the inhibition in data set [1] ([inhibitor] 2.08 uM, 2.08 µM) was found to be 7.12%; in data set [1] ([inhibitor] 8.33 uM, 8.33 µM), 8.31%; in data set [1] ([inhibitor] 16.65 uM, 16.65 µM), 2.6%. In data set [2], the viability at 48 h, 2.08 µM was found to be 101%. Also, the viability at 48 h, 8.33 µM in data set [2] is 97%. Besides, the viability at 48 h, 16.65 µM in data set [2] turned out to be 94.8%. The remaining activity at 19.5 µM in data set [3] (0.5 h, inhibitor 19.50 uM) came to 46.4%. The remaining activity at 100 µM in data set [3] (0.5 h) amounted to 13.9%. Also, in data set [3] (0.5 h), the remaining activity at […] is 103% and 109%. This compound also returned an IC50 in data set [3] of 24 µM. In addition, the “cytotoxicity, %cell viability” value was found to be 100.12% in data set [4] (2.08 µM), 100.79% in data set [4] (8.33 µM) and 89.16% in data set [4] (16.65 µM). Further, in data set [5], the inhibition at […] is 11.2%. Also, the inhibition at 2.08 µM in data set [5] (duplicate wells) came out at 11.2%. The inhibition at 8.33 µM in data set [5] (Severe acute respiratory syndrome coronavirus 2, Vero C1008, read-out: cytopathic effect, % cell viability, [inhibitor] 8.33 uM, duplicate wells) was 8.24%. Further, the inhibition at 16.65 µM in data set [5] (Severe acute respiratory syndrome coronavirus 2, Vero C1008, read-out: cytopathic effect, % cell viability, [inhibitor] 16.65 uM, duplicate wells) was determined as 2.95%.
`C[C@@H](NC(=O)c1ccccc1CCC(=O)NNC(=O)CC#N)c1cccc2ccccc12` [Compound 11, (R)-2-(3-(2-(2-cyanoacetyl)hydrazineyl)-3-oxopropyl)-N-(1-(naphthalen-1-yl)ethyl)benzamide]: in data set [6], the “Time dep. (time-dependent inhibition)” value was “not and No”. For the same compound, in data set [1] (SARS-CoV-2-infected Vero E6 cells, 48 h), the “EC50 (cytopathic effect)” value is listed as “No CPE”. Besides, in data set [1] ([inhibitor] 2.08 uM, 2.08 µM), the inhibition was determined as 4.7%. In data set [2], the viability at 48 h, 2.08 µM is 101%; the viability at 48 h, 8.33 µM worked out at 94%; the viability at 48 h, 16.67 µM was found to be 88.6%; the viability at 48 h, 33.33 µM is 80.8%. In data set [3] (0.5 h, inhibitor 0.02 uM), the remaining activity at 0.02 µM came to 84.4%. In data set [3] (0.5 h, inhibitor 0.20 uM), the remaining activity at 0.2 µM was determined as 89.9%. In addition, the remaining activity at 2.01 µM in data set [3] (0.5 h, inhibitor 2.01 uM) came out at 71.3%. The remaining activity at 6.34 µM in data set [3] (0.5 h, inhibitor 6.34 uM) was found to be 46.4%. In addition, the remaining activity at 20 µM in data set [3] (0.5 h, inhibitor 20.00 uM) was 41.4%. In data set [3] (0.5 h, inhibitor 200.00 uM), the remaining activity at 200 µM worked out at 5.83%. Further, the IC50 in data set [3] was determined as 8 µM. Further, the “cytotoxicity, %cell viability” value in data set [4] (2.08 µM) is recorded as 98.90%. Moreover, the “cytotoxicity, %cell viability” value in data set [4] (8.33 µM) is recorded as 91.20%. Besides, in data set [4] (16.67 µM), the “cytotoxicity, %cell viability” value stood at 87.90%. Besides, the “cytotoxicity, %cell viability” value in data set [4] (33.33 µM) is given as 80.50%. Also, in data set [5], the inhibition at […] was 9.7%. Moreover, in data set [5] (duplicate wells), the inhibition at 2.08 µM is 8%.
